Reference: ChEMBL document CHEMBL1165880, “'On water' assisted synthesis and biological evaluation of nitrogen and sulfur containing hetero-1,4-naphthoquinones as potent antifungal and antibacterial agents” (2010)
Values after ≈ are worked out from the molar mass of the structure shown. Active and inactive are the calls of the source. The rule behind the calls is not given here.

Tests used:
[1] = system: Candida parapsilosis; test: Antifungal activity against Candida parapsilosis ATCC 22019 after 48 hrs by micro broth dilution method; type: functional
[2] = system: Candida albicans; test: Antifungal activity against Candida albicans after 48 hrs by micro broth dilution method; type: functional
[3] = system: Trichophyton mentagrophytes; test: Antifungal activity against Trichophyton mentagrophytes after 96 hrs by micro broth dilution method; type: functional
[4] = system: Cryptococcus neoformans; test: Antifungal activity against Cryptococcus neoformans after 72 hrs by micro broth dilution method; type: functional
[5] = system: Pseudomonas aeruginosa; test: Antibacterial activity against Pseudomonas aeruginosa […] at 50 ug/ml after 24 hrs by micro broth dilution method; type: functional, organism-based
[6] = system: Aspergillus fumigatus; test: Antifungal activity against Aspergillus fumigatus after 72 hrs by micro broth dilution method; type: functional
[7] = system: Staphylococcus aureus; test: Antibacterial activity against Staphylococcus aureus ATCC 25923 after 24 hrs by micro broth dilution method; type: functional
[8] = system: Klebsiella pneumoniae; test: Antibacterial activity against Klebsiella pneumoniae ATCC 27736 after 24 hrs by micro broth dilution method; type: functional
[9] = system: Escherichia coli; test: Antibacterial activity against Escherichia coli after 24 hrs by micro broth dilution method; type: functional

Row | Compound | MIC50 [1] | MIC50 [2] | MIC50 [3] | MIC50 [4] | Activity [5] | MIC50 [6] | MIC50 [7] | MIC50 [8] | MIC50 [9]
1 | OC(Cn1cncn1)(Cn1cncn1)c1ccc(F)cc1F [FLUCONAZOLE] | 3.26 µM (≈ 0.998 µg/mL) | 3.26 µM (≈ 0.998 µg/mL) | 5.09 µM (≈ 1.56 µg/mL) | 1.63 µM (≈ 0.499 µg/mL) |  |  |  |  | 
2 | C=CCNC1=C(Cl)C(=O)c2ccccc2C1=O | 50.5 µM (≈ 12.5 µg/mL) | 50.5 µM (≈ 12.5 µg/mL) | 3.15 µM (≈ 0.78 µg/mL) | 50.5 µM (≈ 12.5 µg/mL) | inactive | 101 µM (≈ 25 µg/mL) | 101 µM (≈ 25 µg/mL) | 25.2 µM (≈ 6.25 µg/mL) | 101 µM (≈ 25 µg/mL)
3 | O=C1C(Cl)=C(N2CCCCC2)C(=O)c2ccccc21 | 11.3 µM (≈ 3.12 µg/mL) | 5.66 µM (≈ 1.56 µg/mL) | 1.42 µM (≈ 0.392 µg/mL) | 22.7 µM (≈ 6.26 µg/mL) | inactive | 90.7 µM (≈ 25 µg/mL) | 90.7 µM (≈ 25 µg/mL) | 90.7 µM (≈ 25 µg/mL) | 43.4 µM (≈ 12 µg/mL)
4 | GENTAMICIN |  |  |  |  |  |  | 1.63 µM | 0.82 µM | 0.38 µM
5 | Clc1ccc(COC(Cn2ccnc2)c2ccc(Cl)cc2Cl)c(Cl)c1 (stereo not drawn) [MICONAZOLE] |  | 60.1 µM (≈ 25 µg/mL) | < 1.87 µM | 30 µM (≈ 12.5 µg/mL) |  | 30 µM (≈ 12.5 µg/mL) |  |  | 
6 | O=C(O)CC(SC1=C(Cl)C(=O)c2ccccc2C1=O)C(=O)O (stereo not drawn) | 147 µM (≈ 50 µg/mL) | > 147 µM | 36.7 µM (≈ 12.5 µg/mL) | 147 µM (≈ 50 µg/mL) | inactive | 147 µM (≈ 50 µg/mL) | 147 µM (≈ 50 µg/mL) | 4.58 µM (≈ 1.56 µg/mL) | 36.7 µM (≈ 12.5 µg/mL)
7 | O=C(O)CSC1=C(Cl)C(=O)c2ccccc2C1=O | 88.5 µM (≈ 25 µg/mL) | 88.5 µM (≈ 25 µg/mL) | 5.52 µM (≈ 1.56 µg/mL) | 88.5 µM (≈ 25 µg/mL) | inactive | 177 µM (≈ 50 µg/mL) | 44.2 µM (≈ 12.5 µg/mL) | 22.1 µM (≈ 6.25 µg/mL) | 44.2 µM (≈ 12.5 µg/mL)
8 | CCOC(=O)C(C)SC1=C(Cl)C(=O)c2ccccc2C1=O (stereo not drawn) | > 154 µM | > 154 µM | > 154 µM | 38.5 µM (≈ 12.5 µg/mL) |  | > 154 µM | 38.5 µM (≈ 12.5 µg/mL) | 154 µM (≈ 50 µg/mL) | 38.5 µM (≈ 12.5 µg/mL)
9 | O=C1C(Cl)=C(SCCS)C(=O)c2ccccc21 | 43.9 µM (≈ 12.5 µg/mL) | 11 µM (≈ 3.12 µg/mL) | 1.37 µM (≈ 0.39 µg/mL) | 11 µM (≈ 3.12 µg/mL) | inactive | 87.8 µM (≈ 25 µg/mL) | 43.9 µM (≈ 12.5 µg/mL) | 21.9 µM (≈ 6.25 µg/mL) | 87.8 µM (≈ 25 µg/mL)
10 | CCOC(=O)CSC1=C(Cl)C(=O)c2ccccc2C1=O | > 161 µM | > 161 µM | > 161 µM | 40.2 µM (≈ 12.5 µg/mL) |  | > 161 µM | 40.2 µM (≈ 12.5 µg/mL) | 161 µM (≈ 50 µg/mL) | 40.2 µM (≈ 12.5 µg/mL)
11 | CN1CCN(C2=C(Cl)C(=O)c3ccccc3C2=O)CC1 | 21.5 µM (≈ 6.26 µg/mL) | 5.38 µM (≈ 1.56 µg/mL) | 1.34 µM (≈ 0.39 µg/mL) | 21.5 µM (≈ 6.26 µg/mL) | inactive | 43.1 µM (≈ 12.5 µg/mL) | 43.1 µM (≈ 12.5 µg/mL) | 21.5 µM (≈ 6.26 µg/mL) | 43.1 µM (≈ 12.5 µg/mL)
12 | NC[C@H]1O[C@H](O[C@H]2[C@H](O)[C@@H](O[C@H]3O[C@H](CO)[C@@H](O)[C@H](N)[C@H]3O)[C@H](N)C[C@@H]2N)[C@H](N)C[C@@H]1O [TOBRAMYCIN] |  |  |  |  |  |  | 0.53 µM (≈ 0.248 µg/mL) | 2.14 µM (≈ 1 µg/mL) | 1.07 µM (≈ 0.5 µg/mL)
13 | O=C1C=C(N2CCCC2)C(=O)c2c(O)ccc(O)c21 | > 193 µM | > 193 µM | 96.4 µM (≈ 25 µg/mL) | > 193 µM | inactive | > 193 µM | 193 µM (≈ 50 µg/mL) | 193 µM (≈ 50 µg/mL) | 193 µM (≈ 50 µg/mL)
